Source: PubChem BioAssay (NCI)
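A five-concentration, 48-hour dose response in 96-well plates underlies each endpoint, interpolated linearly between surrounding concentrations. Abbreviation: GI50, concentration required for 50% inhibition of growth. TGI: total growth inhibition.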

Experiments:
Assay in all cases: NCI-60 cell line screen, 48 h
786-0 renal = test system: 786-0 renal
A498 renal = test system: A498 renal
A549 NSCLC = test system: A549 NSCLC
ACHN renal = test system: ACHN renal
BT-549 breast = test system: BT-549 breast
CAKI-1 renal = test system: CAKI-1 renal
CCRF-CEM leukemia = test system: CCRF-CEM leukemia
COLO 205 colon = test system: COLO 205 colon
DU-145 prostate = test system: DU-145 prostate
EKVX NSCLC = test system: EKVX NSCLC
HCC-2998 colon = test system: HCC-2998 colon
HCT-116 colon = test system: HCT-116 colon
HCT-15 colon = test system: HCT-15 colon
HL-60(TB) leukemia = test system: HL-60(TB) leukemia
HOP-62 NSCLC = test system: HOP-62 NSCLC
HOP-92 NSCLC = test system: HOP-92 NSCLC
HS 578T breast = test system: HS 578T breast
HT29 colon = test system: HT29 colon
IGROV1 ovarian = test system: IGROV1 ovarian
K-562 leukemia = test system: K-562 leukemia
KM12 colon = test system: KM12 colon
LOX IMVI melanoma = test system: LOX IMVI melanoma
M14 melanoma = test system: M14 melanoma
MALME-3M melanoma = test system: MALME-3M melanoma
MCF7 breast = test system: MCF7 breast
MDA-MB-231 breast = test system: MDA-MB-231 breast
MDA-MB-435 = test system: MDA-MB-435
MDA-MB-468 breast = test system: MDA-MB-468 breast
MOLT-4 leukemia = test system: MOLT-4 leukemia
NCI-H226 lung = test system: NCI-H226 lung
NCI-H23 lung = test system: NCI-H23 lung
NCI-H460 lung = test system: NCI-H460 lung
NCI-H522 lung = test system: NCI-H522 lung
NCI/ADR-RES ovarian = test system: NCI/ADR-RES ovarian
OVCAR-3 ovarian = test system: OVCAR-3 ovarian
OVCAR-4 ovarian = test system: OVCAR-4 ovarian
OVCAR-5 ovarian = test system: OVCAR-5 ovarian
OVCAR-8 ovarian = test system: OVCAR-8 ovarian
PC-3 prostate = test system: PC-3 prostate
RPMI-8226 leukemia = test system: RPMI-8226 leukemia
RXF 393 renal = test system: RXF 393 renal
SF-268 CNS = test system: SF-268 CNS
SF-295 CNS = test system: SF-295 CNS
SF-539 CNS = test system: SF-539 CNS
SK-MEL-2 melanoma = test system: SK-MEL-2 melanoma
SK-MEL-28 melanoma = test system: SK-MEL-28 melanoma
SK-MEL-5 melanoma = test system: SK-MEL-5 melanoma
SK-OV-3 ovarian = test system: SK-OV-3 ovarian
SN12C renal = test system: SN12C renal
SNB-19 CNS = test system: SNB-19 CNS
SNB-75 CNS = test system: SNB-75 CNS
SR leukemia = test system: SR leukemia
SW-620 colon = test system: SW-620 colon
T-47D breast = test system: T-47D breast
TK-10 renal = test system: TK-10 renal
U251 CNS = test system: U251 CNS
UACC-257 melanoma = test system: UACC-257 melanoma
UACC-62 melanoma = test system: UACC-62 melanoma
UO-31 renal = test system: UO-31 renal

Cc1ccc(C2CC(c3ccc(NC(=S)Nc4ccccc4)cc3)=NN2c2ccc(S(N)(=O)=O)cc2)cc1 (stereo not drawn)
GI50 (786-0 renal): 3.89 µM
TGI (786-0 renal): 22.5 µM
GI50 (A498 renal): 6.73 µM
TGI (A498 renal): 25.8 µM
GI50 (A549 NSCLC): 4.09 µM
TGI (A549 NSCLC): > 100 µM
GI50 (ACHN renal): 3.25 µM
TGI (ACHN renal): 11.6 µM
GI50 (BT-549 breast): 6.06 µM
TGI (BT-549 breast): 19.3 µM
GI50 (CAKI-1 renal): 3.12 µM
TGI (CAKI-1 renal): 12.7 µM
GI50 (CCRF-CEM leukemia): 3.18 µM
TGI (CCRF-CEM leukemia): 53.1 µM
GI50 (COLO 205 colon): 3.56 µM
TGI (COLO 205 colon): 12.3 µM
GI50 (DU-145 prostate): 8.22 µM
TGI (DU-145 prostate): 97.1 µM
GI50 (EKVX NSCLC): 3.75 µM
TGI (EKVX NSCLC): 37.3 µM
GI50 (HCC-2998 colon): 3.58 µM
TGI (HCC-2998 colon): 18.3 µM
GI50 (HCT-116 colon): 3.28 µM
TGI (HCT-116 colon): 16.9 µM
GI50 (HCT-15 colon): 3.05 µM
TGI (HCT-15 colon): 18.8 µM
GI50 (HL-60(TB) leukemia): 2.33 µM
TGI (HL-60(TB) leukemia): 6.51 µM
GI50 (HOP-62 NSCLC): 8.74 µM
TGI (HOP-62 NSCLC): 34.2 µM
GI50 (HOP-92 NSCLC): 3.81 µM
TGI (HOP-92 NSCLC): 22 µM
GI50 (HS 578T breast): 8.04 µM
TGI (HS 578T breast): 48.4 µM
GI50 (HT29 colon): 2.55 µM
TGI (HT29 colon): 8.75 µM
GI50 (IGROV1 ovarian): 3.44 µM
TGI (IGROV1 ovarian): 14.7 µM
GI50 (K-562 leukemia): 3.2 µM
TGI (K-562 leukemia): 47.6 µM
GI50 (KM12 colon): 4.67 µM
TGI (KM12 colon): 23.7 µM
GI50 (LOX IMVI melanoma): 4.76 µM
TGI (LOX IMVI melanoma): 20 µM
GI50 (M14 melanoma): 4.2 µM
TGI (M14 melanoma): 17.8 µM
GI50 (MALME-3M melanoma): 6.88 µM
TGI (MALME-3M melanoma): 23.6 µM
GI50 (MCF7 breast): 2.78 µM
TGI (MCF7 breast): 14.2 µM
GI50 (MDA-MB-231 breast): 9.63 µM
TGI (MDA-MB-231 breast): 29.6 µM
GI50 (MDA-MB-435): 3.06 µM
TGI (MDA-MB-435): 25 µM
GI50 (MDA-MB-468 breast): 1.81 µM
TGI (MDA-MB-468 breast): 5.56 µM
GI50 (MOLT-4 leukemia): 2.62 µM
TGI (MOLT-4 leukemia): 13.2 µM
GI50 (NCI-H226 lung): 3.31 µM
TGI (NCI-H226 lung): 19.1 µM
GI50 (NCI-H23 lung): 5.79 µM
TGI (NCI-H23 lung): 34 µM
GI50 (NCI-H460 lung): 3.1 µM
TGI (NCI-H460 lung): 11.5 µM
GI50 (NCI-H522 lung): 2.84 µM
TGI (NCI-H522 lung): 14.8 µM
GI50 (NCI/ADR-RES ovarian): 4.04 µM
TGI (NCI/ADR-RES ovarian): 49.5 µM
GI50 (OVCAR-3 ovarian): 3.28 µM
TGI (OVCAR-3 ovarian): 22.7 µM
GI50 (OVCAR-4 ovarian): 4.06 µM
TGI (OVCAR-4 ovarian): 33.5 µM
GI50 (OVCAR-5 ovarian): 4.54 µM
TGI (OVCAR-5 ovarian): 17.9 µM
GI50 (OVCAR-8 ovarian): 5.96 µM
TGI (OVCAR-8 ovarian): 67.8 µM
GI50 (PC-3 prostate): 2.75 µM
TGI (PC-3 prostate): 14 µM
GI50 (RPMI-8226 leukemia): 3.45 µM
TGI (RPMI-8226 leukemia): > 100 µM
GI50 (RXF 393 renal): 2.99 µM
TGI (RXF 393 renal): 12.7 µM
GI50 (SF-268 CNS): 4.11 µM
TGI (SF-268 CNS): > 100 µM
GI50 (SF-295 CNS): 3.28 µM
TGI (SF-295 CNS): 15.7 µM
GI50 (SF-539 CNS): 5.4 µM
TGI (SF-539 CNS): 19.8 µM
GI50 (SK-MEL-2 melanoma): 6.22 µM
TGI (SK-MEL-2 melanoma): 21.1 µM
GI50 (SK-MEL-28 melanoma): 4.69 µM
TGI (SK-MEL-28 melanoma): 16.4 µM
GI50 (SK-MEL-5 melanoma): 4.83 µM
TGI (SK-MEL-5 melanoma): 17.8 µM
GI50 (SK-OV-3 ovarian): 11 µM
TGI (SK-OV-3 ovarian): 32.9 µM
GI50 (SN12C renal): 4.23 µM
TGI (SN12C renal): 29.5 µM
GI50 (SNB-19 CNS): 4.97 µM
TGI (SNB-19 CNS): 23.2 µM
GI50 (SNB-75 CNS): 2.01 µM
TGI (SNB-75 CNS): 14.6 µM
GI50 (SR leukemia): 3.3 µM
TGI (SR leukemia): 27.2 µM
GI50 (SW-620 colon): 3.52 µM
TGI (SW-620 colon): 26.6 µM
GI50 (T-47D breast): 3.16 µM
TGI (T-47D breast): 17.5 µM
GI50 (TK-10 renal): 3.09 µM
TGI (TK-10 renal): 17.6 µM
GI50 (U251 CNS): 5.29 µM
TGI (U251 CNS): 24.2 µM
GI50 (UACC-257 melanoma): 6.4 µM
TGI (UACC-257 melanoma): 30.9 µM
GI50 (UACC-62 melanoma): 3.45 µM
TGI (UACC-62 melanoma): 16 µM
GI50 (UO-31 renal): 2.67 µM
TGI (UO-31 renal): 13.3 µM
